The source of these data is US10815231B2, “[1,2,4] triazolo [1,5-a] pyridine derivative and crystalline form thereof” (WEST CHINA HOSPITAL, SICHUAN UNIVERSITY, priority 2016, dated 2020).

One assay has as its system H1299 cells. The assay is described as follows: MTT detection method, inhibitory effect against H1299 cells. It counts as cell-based. The following applies: 5000 cells/well, treatment 48 h; for The mean inhibitory ratio (%): mean of three; for The inhibitory ratio (%) for three parallel assays: single parallel assays. From the text:
(§1) MTT detection method was used, and MTT is a yellow compound and a dye accepting hydrogen ions, and can be used as the respiratory chain in mitochondria of viable cells. Under the action of succinate dehydrogenase and cytochrome C, the tetrazolium ring broke to form blue formanzan crystal, and the formation amount of formanzan crystal was only directly proportional to the viable counts. The formanzan crystal formed by reduction can dissolve in dimethyl sulfoxide (DMSO), and the optical density (OD) value can be determined at 490 nm using ELISA, to reflect the viable counts.
(§2) Lung cancer cell lines: A549 and H1299.
(§3) Experimental materials: lung cancer cell lines, instruments and tools for cell culture, MTT, and the compound mother liquid (10 mmol/L).
(§4) (3-1) Cell lines A549 and H1299 were recovered, and when the cells were in good conditions, namely cells grew to about 80% after one passage (i.e. the logarithmic growth phase), the cells were planked (96-well plate).
(§5) (3-2) Firstly, cells were collected, and the concentration of cell suspension was adjusted with counting chamber. Cells were seeded in 96-well plate at 1000-10000 cells/well, and the detailed cell numbers in each well were dependent on the growth rate of different cells and the action time of drugs. A549 cells were seeded at 5000 cells, while H1299 cells were also seeded at 5000 cells, 200 μl for each well (100 μl cell suspension+100 μl drug dilution at different concentration gradient). The edge wells (36) were added 200 μl culture media (for prevention of edge effect).
(§6) (3-3) After planking and adding drugs, the plate was treated at 24 h, 48 h, and 72 h, and then for coloration, each well was added 200 μl culture media containing 20 μl MTT solution (5 mg/mL). The plate was continually cultured for 1-4 hours, and the culture supernatant fluid in each well was carefully absorbed. For suspension cells, the culture supernatant fluid in each well need be centrifuged before drawing. 150 μl DMSO was added to each well, and the plate was shaken on a shaking table for 15-20 min, to allow the crystals to be completely dissolved.
(§7) (3-4) Colorimetry: The colorimetry was performed by ELISA, and the optical absorption value of each well was tested at a wavelength of 490 nm or 570 nm, and the result was recorded.
(§8) (3-5) Calculation Inhibition ratio=(the control−the drug)/the control×100%
(§9) IC50 (50% inhibitory concentration) can be calculated by spass software based on the inhibitory ratio at different concentration.

A further assay deals with A549 cells. Kind of assay: MTT detection method, inhibitory effect against A549 cells. It counts as cell-based. The following applies: 5000 cells/well, treatment 48 h; for The mean inhibitory ratio (%): mean of three; for The inhibitory ratio (%) for three parallel assays: single parallel assays.
Text: as §1, §2, §3, §4, §5, §6, §7, §8, §9

Values joined by “and” are separate entries in the source; they are usually repeats but may differ in a detail not shown here. Identical values can stand only once.

As to `Nc1nc2cccc(-c3ccc(CN4CCOCC4)cc3)n2n1` [Compound 1, 2-amino-5-[4-(4-morpholinylmethyl)phenyl]-[1,2,4]triazolo[1,5-a]pyridine], the “The mean inhibitory ratio (%)” value with H1299 cells (25 μm) came to 62%; in the assay with H1299 cells (50 μm), 95%; in the assay with H1299 cells (100 μm), 85%; with A549 cells (25 μm) it was 10%; in the assay on A549 cells (50 μm), 29%; in the assay with A549 cells (100 μm), 31%. The “The inhibitory ratio (%) for three parallel assays” value (“The inhibitory ratio (%)” for short) in the assay with H1299 cells (25 μm) is 63% and 61%; in the assay on H1299 cells (50 μm) it was 93% and 94% and 97%; in the assay on H1299 cells (100 μm), 86% and 84%; in the assay on A549 cells (25 μm), 10% and 9%; with A549 cells (50 μm), 28% and 31% and 29%; in the assay with A549 cells (100 μm) it was 31% and 30%.
Take `Ic1nc2cccc(-c3ccc(CN4CCOCC4)cc3)n2n1` [Compound 2, 2-iodo-5-[4-(4-morpholinylmethyl)phenyl]-[1,2,4]triazolo[1,5-a]pyridine]: the “The mean inhibitory ratio (%)” value in the assay with H1299 cells (50 μm) stood at 31%; with H1299 cells (80 μm), 33%; in the assay on H1299 cells (100 μm), 31%; in the assay with A549 cells (25 μm), 27%; with A549 cells (40 μm), 22%; in the assay with A549 cells (50 μm) it was 24%. Further, the “The inhibitory ratio (%)” value in the assay with H1299 cells (50 μm) was 32% and 31% and 29%; in the assay on H1299 cells (80 μm), 33% and 32%; in the assay on H1299 cells (100 μm) it was 32% and 29%; with A549 cells (25 μm), 26% and 25% and 30%; with A549 cells (40 μm) it was 21% and 22%; with A549 cells (50 μm) it was 23% and 27%.
Turning to `N#Cc1nc2cccc(-c3ccc(CN4CCOCC4)cc3)n2n1` [Compound 3, 2-cyano-5-[4-(4-morpholinylmethyl)phenyl]-[1,2,4]triazolo[1,5-a]pyridine], the “The mean inhibitory ratio (%)” value in the assay with H1299 cells (50 μm) turned out to be 32%; in the assay on H1299 cells (80 μm) it was 32%; with H1299 cells (100 μm), 34%; with A549 cells (25 μm), 22%; with A549 cells (40 μm), 22%; in the assay on A549 cells (50 μm), 25%. Besides, the “The inhibitory ratio (%)” value with H1299 cells (50 μm) is 33% and 32%; in the assay on H1299 cells (80 μm) it was 32%; with H1299 cells (100 μm), 33% and 34% and 35%; in the assay on A549 cells (25 μm) it was 20% and 26%; in the assay with A549 cells (40 μm), 22% and 24% and 20%; in the assay with A549 cells (50 μm) it was 24% and 27%.
